Laboratory results as given in the supplement of paper PMC11061612.

How the values were obtained:
[1] = compound: COc1cccc2c1C(=O)c1c(O)c3c(c(O)c1C2=O)C[C@@](O)(C(=O)CO)C[C@@H]3O[C@H]1C[C@H](N)[C@H](O)[C@H](C)O1 [Doxorubicin]; conditions: max 1 µM
How it was run: (§1)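 Cancer cell lines were seeded into 1536-well plates in 7.5 μl medium (DMEM/F12 or RPMI, 10% FBS), held 24 hours at 37°C and 5% CO2, and dosed for 72 hours with final DMSO typically 0.2%. Luminescence from CellTiter-Glo 2.0, scaled between blank-well and DMSO-well means, served as viability. The single-agent IC50 was obtained from dose-response fits with a non-linear mixed effects model, each fit being a two-parameter logistic curve.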

[2] = compound: C1CN(CCC1(C(=O)N[C@@H](CCO)C2=CC=C(C=C2)Cl)N)C3=NC=NC4=C3C=CN4 [AZD5363]; conditions: max 10 µM
How it was run: as §1

[3] = compound: CS(=O)(=O)CCNCc1ccc(-c2ccc3ncnc(Nc4ccc(OCc5cccc(F)c5)c(Cl)c4)c3c2)o1 [Lapatinib]; conditions: max 10 µM
How it was run: as §1

[4] = compound: C=CCn1c(=O)c2cnc(Nc3ccc(N4CCN(C)CC4)cc3)nc2n1-c1cccc(C(C)(C)O)n1 [AZD1775]; conditions: max 3 µM
How it was run: as §1

[5] = compound: CC1=C(C(=CC=C1)Cl)NC(=O)C2=CN=C(S2)NC3=CC(=NC(=N3)C)N4CCN(CC4)CCO [Dasatinib]; conditions: max 2 µM
How it was run: as §1

[6] = compound: COc1cccc(OCCCN)c1-c1cc(Nc2cnc(C#N)cn2)n[nH]1 [Prexasertib]; conditions: max 1 µM
How it was run: as §1

[7] = compound: CC(=O)Nc1cccc(-n2c(=O)n(C3CC3)c(=O)c3c(Nc4ccc(I)cc4F)n(C)c(=O)c(C)c32)c1 [Trametinib]; conditions: max 1 µM
How it was run: as §1

[8] = compound: COc1cc(Nc2ncc3c(n2)-c2ccc(Cl)cc2C(c2c(F)cccc2OC)=NC3)ccc1C(=O)O [Alisertib]; conditions: max 10 µM
How it was run: as §1

[9] = compound: O=C(Nc1ccc2[nH]nc(-c3ccncc3)c2c1)[C@@H]1CCN(CC(=O)N2CCN(c3ccc(-c4ncccn4)cc3)CC2)C1; conditions: max 5 µM
How it was run: as §1

[10] = compound: Cc1cc2ncnn2cc1Nc1ncc2c(n1)n(C1CCOCC1)c(=O)n2C [AZD7648]; conditions: max 10 µM
How it was run: as §1

[11] = compound: CN(CC[C@H](CSC1=CC=CC=C1)NC2=C(C=C(C=C2)S(=O)(=O)NC(=O)C3=CC=C(C=C3)N4CCC(CC4)[C@H](C5=CC=CC=C5C6=CC=C(C=C6)Cl)O)S(=O)(=O)C(F)(F)F)CCO [AZD4320]; conditions: max 1 µM
How it was run: as §1

[12] = compound: C1CC(C1)(C(=O)[O-])C(=O)[O-].N.N.[Pt+2] [Carboplatin]; conditions: max 10 µM
How it was run: as §1

[13] = compound: Cn1cnc2c(F)c(Nc3ccc(Br)cc3Cl)c(C(=O)NOCCO)cc21 [Selumetinib]; conditions: max 10 µM
How it was run: as §1

[14] = compound: CC1=CN2[C@@H](C1)C=NC3=CC(=C(C=C3C2=O)OC)OCCCCCOC4=C(C=C5C(=C4)N=C[C@@H]6CC(=CN6C5=O)C)OC [SG3199]; conditions: max 0.001 µM
How it was run: as §1

[15] = compound: CCc1c2c(nc3ccc(O)cc13)-c1cc3c(c(=O)n1C2)COC(=O)[C@]3(O)CC [SN-38]; conditions: max 0.3 µM
How it was run: as §1

[16] = compound: CC(C)n1c(=O)n(C)c2cnc3cc(F)c(-c4ccc(OCCCN5CCCCC5)nc4)cc3c21 [AZD1390]; conditions: max 0.3 µM
How it was run: as §1

[17] = compound: O=c1[nH]cc(F)c(=O)[nH]1 [5-Fluorouracil]; conditions: max 20 µM
How it was run: as §1

[18] = compound: Cc1nc(-c2cn3c(n2)-c2ccc(-c4cnn(C(C)(C)C(N)=O)c4)cc2OCC3)n(C(C)C)n1 [Taselisib]; conditions: max 10 µM
How it was run: as §1

[19] = compound: COc1cc([C@@H]2c3cc4c(cc3[C@@H](O[C@@H]3O[C@@H]5CO[C@@H](C)O[C@H]5[C@H](O)[C@H]3O)[C@H]3COC(=O)[C@H]23)OCO4)cc(OC)c1O [Etoposide]; conditions: max 10 µM
How it was run: as §1

[20] = compound: O=C(c1cc(Cc2n[nH]c(=O)c3ccccc23)ccc1F)N1CCN(C(=O)C2CC2)CC1 [Olaparib]; conditions: max 10 µM
How it was run: as §1

[21] = compound: C[C@@H](Oc1cc(-c2cnn(C3CCNCC3)c2)cnc1N)c1c(Cl)ccc(F)c1Cl [Crizotinib]; conditions: max 10 µM
How it was run: as §1

[22] = compound: COc1cc2ncnc(Nc3ccc(F)c(Cl)c3)c2cc1OCCCN1CCOCC1 [Gefitinib]; conditions: max 10 µM
How it was run: as §1

[23] = compound: N#Cc1cnc(Nc2cc(NC[C@H]3CNCCO3)c(C(F)(F)F)cn2)cn1 [SRA737]; conditions: max 10 µM
How it was run: as §1

[24] = compound: C[C@@H](Nc1cc(F)cc(F)c1)c1cc(C(=O)N(C)C)cc2c(=O)cc(N3CCOCC3)oc12 [AZD8186]; conditions: max 10 µM
How it was run: as §1

[25] = compound: CC1(C)CCC(CN2CCN(c3ccc(C(=O)NS(=O)(=O)c4ccc(NCC5CCOCC5)c([N+](=O)[O-])c4)c(Oc4cnc5[nH]ccc5c4)c3)CC2)=C(c2ccc(Cl)cc2)C1 [Venetoclax]; conditions: max 1 µM
How it was run: as §1

[26] = compound: CN(C)CCCOc1ccc(-c2ccc3ncc4c(c3c2)n(C2CCOCC2)c(=O)n4C)cn1 [AZD0156]; conditions: max 3 µM
How it was run: as §1

[27] = compound: Nc1ccn([C@@H]2O[C@H](CO)[C@@H](O)C2(F)F)c(=O)n1 [Gemcitabine]; conditions: max 0.3 µM
How it was run: as §1

[28] = compound: C[C@@H]1COCCN1C2=NC(=NC(=C2)C3(CC3)[S@](=N)(=O)C)C4=C5C=CNC5=NC=C4 [AZD6738]; conditions: max 10 µM
How it was run: as §1

[29] = compound: C[C@@H](c1ccc2nccn2c1)n1nnc2ncc(-c3cnn(C)c3)nc21 [Savolitinib]; conditions: max 1 µM
How it was run: as §1

[30] = compound: CC(=O)O[C@H]1C(=O)[C@@]2(C)[C@H]([C@H](OC(=O)c3ccccc3)[C@]3(O)C[C@H](OC(=O)[C@H](O)[C@@H](NC(=O)c4ccccc4)c4ccccc4)C(C)=C1C3(C)C)[C@]1(OC(C)=O)CO[C@@H]1C[C@@H]2O [Paclitaxel]; conditions: max 3 µM
How it was run: as §1

[31] = compound: COc1nnc2ccc(N3CCC(c4ccc(OCCN5CCN(C)C(=O)[C@H]5C)cc4)CC3)nn12 [AZD5153]; conditions: max 1 µM
How it was run: as §1

[32] = compound: NC1(c2ccc(-c3nc4ccn5c(=O)[nH]nc5c4cc3-c3ccccc3)cc2)CCC1 [MK-2206]; conditions: max 10 µM
How it was run: as §1

[33] = compound: CC(=O)c1c(C)c2cnc(Nc3ccc(N4CCNCC4)cn3)nc2n(C2CCCC2)c1=O [Palbociclib]; conditions: max 10 µM
How it was run: as §1

[34] = compound: CCN(CCO)CCCOc1ccc2c(Nc3cc(CC(=O)Nc4cccc(F)c4)[nH]n3)ncnc2c1 [AZD2811]; conditions: max 1 µM
How it was run: as §1

[35] = compound: Cc1c2c(nn1C)CSCc1cc(n(C)n1)CSc1cc(c3ccccc3c1)OCCCc1c(C(=O)O)n(C)c3c-2c(Cl)ccc13 [AZD5991]; conditions: max 1 µM
How it was run: as §1

Cell Line	IC50, cell viability 72 h [1] [nM]	IC50, cell viability 72 h [2] [µM]	IC50, cell viability 72 h [3] [µM]	IC50, cell viability 72 h [4] [nM]	IC50, cell viability 72 h [5] [nM]	IC50, cell viability 72 h [6] [nM]	IC50, cell viability 72 h [7] [nM]	IC50, cell viability 72 h [8] [nM]	IC50, cell viability 72 h [9] [µM]	IC50, cell viability 72 h [10] [µM]	IC50, cell viability 72 h [11] [nM]	IC50, cell viability 72 h [12] [µM]	IC50, cell viability 72 h [13] [µM]	IC50, cell viability 72 h [14] [nM]	IC50, cell viability 72 h [15] [nM]	IC50, cell viability 72 h [16] [nM]	IC50, cell viability 72 h [17] [µM]	IC50, cell viability 72 h [18] [µM]	IC50, cell viability 72 h [19] [nM]	IC50, cell viability 72 h [20] [µM]	IC50, cell viability 72 h [21] [µM]	IC50, cell viability 72 h [22] [µM]	IC50, cell viability 72 h [23] [µM]	IC50, cell viability 72 h [24] [µM]	IC50, cell viability 72 h [25] [nM]	IC50, cell viability 72 h [26] [nM]	IC50, cell viability 72 h [27] [nM]	IC50, cell viability 72 h [28] [µM]	IC50, cell viability 72 h [29] [nM]	IC50, cell viability 72 h [30] [nM]	IC50, cell viability 72 h [31] [nM]	IC50, cell viability 72 h [32] [µM]	IC50, cell viability 72 h [33] [µM]	IC50, cell viability 72 h [34] [nM]	IC50, cell viability 72 h [35] [nM]
CCRF-CEM (T-Lymphoblastic Leukemia)	62.6	7.97	> 10	134	> 2000	3.26	> 1000	73.7	> 5	> 10	55.2	> 10	> 10	> 1	1.91	> 300	> 20	7.25	202	> 10	1.55	> 10	0.77	> 10	> 1000	> 3000	32.6	0.992	> 1000	4.87	523	3.98	1.95	6.51	> 1000
CaR-1 (Colorectal Carcinoma)	957	> 10	> 10	> 3000	> 2000	279	> 1000	> 10000	> 5	> 10	> 1000	> 10	> 10	> 1	28.2	> 300	> 20	6.55	> 10000	> 10	> 10	> 10	> 10	> 10	> 1000	> 3000	228	> 10	> 1000	171	> 1000	> 10	> 10	> 1000	> 1000
RO82-W-1 (Thyroid Gland Carcinoma)	> 1000	> 10	> 10	> 3000	> 2000	> 1000	> 1000	> 10000	> 5	> 10	> 1000	> 10	> 10	> 1	> 300	> 300	> 20	> 10	> 10000	> 10	> 10	> 10	> 10	> 10	> 1000	> 3000	> 300	> 10	> 1000	> 3000	> 1000	> 10	> 10	> 1000	> 1000
HO-1-N-1 (Oral Cavity Carcinoma)	84.2	> 10	7.3	1520	581	60.1	417	68.7	2.26	> 10	> 1000	> 10	> 10	> 1	4.4	> 300	17.6	1.96	1260	> 10	5.58	8.37	> 10	> 10	> 1000	> 3000	6.22	5.59	> 1000	< 3	202	> 10	> 10	409	788
CAL-148 (Breast Carcinoma)	54.9	0.274	> 10	206	> 2000	234	> 1000	1330	> 5	> 10	> 1000	> 10	> 10	> 1	2.5	> 300	> 20	0.241	590	> 10	> 10	> 10	> 10	> 10	> 1000	> 3000	29.9	3.82	> 1000	45.2	803	1.38	> 10	26.2	> 1000
